# Laboratory results reported in US20250145665A1, “MACROCYCLIC PEPTIDES USEFUL AS MODULATORS OF TNF ALPHA” (Bristol-Myers Squibb Company, priority 2023, published 2025).
# Like-named read-outs stand apart in the source and are kept apart here. Starred links: 1 amine or outer side, 2 acyl side, 3 side chain; linkers in the order of their positions; H or OH if unused. Positions of bridges follow the written chain, without caps; N, C: chain ends. Non-standard residues stand in square brackets, D forms with d. Residues, ends and D or L forms follow the SMILES beside them. *: point of attachment. Bip(4'-NHCO-C6H4-4-CH2COOH) = N[C@@H](Cc1ccc(-c2ccc(NC(=O)c3ccc(CC(=O)O)cc3)cc2)cc1)C(=O)O; X37 = O=C(Nc1ccc(-c2ccc(C[C@H](N[*:1])C(=O)[*:2])cc2)cc1)c1ccc2ccccc2c1; Bip(4'-NH) = O=C([C@H](Cc1ccc(-c2ccc(N[*:3])cc2)cc1)N[*:1])[*:2]; dArg(ω-(3-HO-benzyl)) = N=C(NCCC[C@@H](N)C(=O)O)NCc1cccc(O)c1; Indazole3carbonyl(1-CH2COOH) = O=C(O)Cn1nc(C(=O)*)c2ccccc21; Bip(4'-COOH) = N[C@@H](Cc1ccc(-c2ccc(C(=O)O)cc2)cc1)C(=O)O; Ala(imidazol-2-yl) = N[C@@H](Cc1ncc[nH]1)C(=O)O; dArg(ω-Bn) = N=C(NCCC[C@@H](N)C(=O)O)NCc1ccccc1; Ala(morpholin-4-yl) = N[C@@H](CN1CCOCC1)C(=O)O; Benzoyl(3-OCH2COOH) = O=C(O)COc1cccc(C(=O)*)c1; Bip = N[C@@H](Cc1ccc(-c2ccccc2)cc1)C(=O)O; X75 = O=C(O)Cn1ccc2c(C(=O)*)cccc21; 2Pal = N[C@@H](Cc1ccccn1)C(=O)O; Cha = N[C@@H](CC1CCCCC1)C(=O)O; Sar = CNCC(=O)O
# Target: TNFα (Homo sapiens, UniProt P01375)
# Sequence (P01375 77-233 limits assumed): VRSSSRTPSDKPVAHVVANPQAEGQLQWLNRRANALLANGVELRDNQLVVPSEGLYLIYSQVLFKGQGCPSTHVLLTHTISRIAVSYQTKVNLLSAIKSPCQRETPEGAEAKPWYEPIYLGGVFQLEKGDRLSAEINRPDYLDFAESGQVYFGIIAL
# Test: TNF-Induced HEK-Blue Assay
# Type: cell-based
# [1] = HEK-Blue-CD40L cells, NF-kB-driven secreted alkaline phosphatase reporter, TNFα 0.5 ng/ml, 18 h, read-out: TNF induced HEK-Blue assay IC50 value
Structure (SMILES),IC50 [1] [nM],IC50 [nM]
CC(C)C[C@@H]1NC(=O)[C@H](Cc2cnc[nH]2)NC(=O)[C@H](C(C)C)NC(=O)[C@@H]2CCCN2C(=O)[C@H](C(C)C)NC(=O)[C@@H](CCCNC(=N)NCc2ccccc2)NC(=O)[C@H](CC(=O)O)NC(=O)[C@H](Cc2ccccn2)NC(=O)CN(C)C(=O)[C@H](Cc2ccc(-c3ccc(NC(=O)c4nn(CC(=O)O)c5ccccc45)cc3)cc2)NC(=O)[C@H](Cc2ccc(-c3ccccc3)cc2)NC(=O)[C@H](CN2CCOCC2)NC(=O)CSC[C@@H](C(=O)NCC(N)=O)NC1=O [Example 628] ({CH2CO}-[Ala(morpholin-4-yl)][Bip][Bip(4'-NH)](Indazole3carbonyl(1-CH2COOH))[Sar][2Pal]D[dArg(ω-Bn)]VPVHLCG-NH2; thioether N-13),–,< 50
CC[C@H](C)[C@@H]1NC(=O)[C@@H](CCCNC(=N)N)NC(=O)[C@H](CC(=O)O)NC(=O)[C@H](Cc2cnc[nH]2)NC(=O)CN(C)C(=O)[C@H](Cc2ccc(-c3ccc(NC(=O)c4ccc5ccccc5c4)cc3)cc2)NC(=O)[C@H](Cc2ccc(-c3ccccc3)cc2)NC(=O)[C@H](CC2CCCCC2)NC(=O)CSC[C@@H](C(=O)NCC(N)=O)NC(=O)[C@H](CC(C)C)NC(=O)[C@H](Cc2cnc[nH]2)NC(=O)[C@H](C(C)C)NC(=O)[C@@H]2CCCN2C1=O [Example 322] ({CH2CO}-[Cha][Bip][X37][Sar]HD[dR]IPVHLCG-NH2; thioether N-13),50 to 200,–
CC(C)C[C@@H]1NC(=O)[C@H](Cc2ncc[nH]2)NC(=O)[C@H](C(C)C)NC(=O)[C@@H]2CCCN2C(=O)[C@H](C(C)C)NC(=O)[C@@H](CCCNC(=N)NCc2cccc(O)c2)NC(=O)[C@H](CC(=O)O)NC(=O)[C@H](Cc2ccccn2)NC(=O)CN(C)C(=O)[C@H](Cc2ccc(-c3ccc(NC(=O)c4ccc(CC(=O)O)cc4)cc3)cc2)NC(=O)[C@H](Cc2ccc(-c3ccc(C(=O)O)cc3)cc2)NC(=O)[C@H](CC2CCCCC2)NC(=O)CSC[C@@H](C(=O)NCC(N)=O)NC1=O [Example 554] ({CH2CO}-[Cha][Bip(4'-COOH)][Bip(4'-NHCO-C6H4-4-CH2COOH)][Sar][2Pal]D[dArg(ω-(3-HO-benzyl))]VPV[Ala(imidazol-2-yl)]LCG-NH2; thioether N-13),< 50,–

# Further lines, with some results ahead:
IC50 [1] [nM],Structure (SMILES),IC50 [nM]
50 to 200,CC[C@H](C)[C@@H]1NC(=O)[C@@H](CCCNC(=N)N)NC(=O)[C@H](CC(=O)O)NC(=O)[C@@H]2CCCN2C(=O)CN(C)C(=O)[C@H](Cc2ccc(-c3ccc(NC(=O)c4cccc(OCC(=O)O)c4)cc3)cc2)NC(=O)[C@H](Cc2ccc(-c3ccc(C(=O)O)cc3)cc2)NC(=O)[C@H](CN2CCOCC2)NC(=O)CSC[C@@H](C(=O)NCC(N)=O)NC(=O)[C@H](CC(C)C)NC(=O)[C@H](Cc2cnc[nH]2)NC(=O)[C@H](C(C)C)NC(=O)[C@@H]2CCCN2C1=O [Example 577] ({CH2CO}-[Ala(morpholin-4-yl)][Bip(4'-COOH)][Bip(4'-NH)](Benzoyl(3-OCH2COOH))[Sar]PD[dR]IPVHLCG-NH2; thioether N-13),–
50 to 200,CC(C)C[C@@H]1NC(=O)[C@H](Cc2ccc(O)cc2)NC(=O)[C@H](C)NC(=O)[C@@H]2CCCN2C(=O)[C@H](C(C)C)NC(=O)[C@@H](CCCNC(=N)N)NC(=O)[C@H](CC(=O)O)NC(=O)[C@H](Cc2ccc(O)cc2)NC(=O)CN(C)C(=O)[C@H](Cc2ccc(-c3ccccc3)cc2)NC(=O)[C@H](Cc2ccc(-c3ccccc3)cc2)NC(=O)[C@H](CN2CCOCC2)NC(=O)CSC[C@@H](C(=O)NCC(N)=O)NC1=O [Example 162] ({CH2CO}-[Ala(morpholin-4-yl)][Bip][Bip][Sar]YD[dR]VPAYLCG-NH2; thioether N-13),–
< 50,CC(C)C[C@@H]1NC(=O)[C@H](CCCNC(=N)N)NC(=O)[C@H](C(C)C)NC(=O)[C@@H]2CCCN2C(=O)[C@H](C(C)C)NC(=O)[C@@H](CCCNC(=N)N)NC(=O)[C@H](CC(=O)O)NC(=O)[C@@H]2CCCN2C(=O)CN(C)C(=O)[C@H](Cc2ccc(-c3ccc(NC(=O)c4cccc5c4ccn5CC(=O)O)cc3)cc2)NC(=O)[C@H](Cc2ccc(-c3ccccc3)cc2)NC(=O)[C@H](CN2CCOCC2)NC(=O)CSC[C@@H](C(=O)NCC(N)=O)NC1=O [Example 382] ({CH2CO}-[Ala(morpholin-4-yl)][Bip][Bip(4'-NH)](X75)[Sar]PD[dR]VPVRLCG-NH2; thioether N-13),–
